Measurements: ChEMBL document CHEMBL4507260 (2021)

How the values were obtained:
Conditions in all cases: Compound concentration 1000.0 nM
[1] = molecular target: Myotonin-protein kinase (Homo sapiens) (UniProt Q09013)
[2] = molecular target: Serine/threonine-protein kinase 3 (Homo sapiens) (UniProt Q13188)
[3] = molecular target: Serine/threonine-protein kinase PLK4 (Homo sapiens) (UniProt O00444)
[4] = molecular target: Ephrin type-B receptor 2 (Homo sapiens) (UniProt P29323)
[5] = molecular target: Serine/threonine-protein kinase 32A (Homo sapiens) (UniProt Q8WU08)
[6] = molecular target: Serine/threonine-protein kinase 26 (Homo sapiens) (UniProt Q9P289)
[7] = molecular target: BMP-2-inducible protein kinase (Homo sapiens) (UniProt Q9NSY1)
[8] = molecular target: Phosphatidylinositol 4,5-bisphosphate 3-kinase catalytic subunit beta isoform (Homo sapiens) (UniProt P42338)
[9] = molecular target: Casein kinase I isoform gamma-2 (Homo sapiens) (UniProt P78368)
[10] = system: Mast/stem cell growth factor receptor Kit (Homo sapiens), P10721 [L576P]
[11] = molecular target: Tyrosine-protein kinase Lyn (Homo sapiens) (UniProt P07948)
[12] = molecular target: Vascular endothelial growth factor receptor 2 (Homo sapiens) (UniProt P35968)
[13] = molecular target: Mitogen-activated protein kinase kinase kinase 11 (Homo sapiens) (UniProt Q16584)
[14] = molecular target: Serine/threonine-protein kinase SBK1 (Homo sapiens) (UniProt Q52WX2)
[15] = molecular target: Mitogen-activated protein kinase 11 (Homo sapiens) (UniProt Q15759)
[16] = molecular target: Serine/threonine-protein kinase SIK1 (Homo sapiens) (UniProt P57059)
[17] = system: Tyrosine-protein kinase ABL1 (Homo sapiens), P00519 [F317L]
Sequence of Tyrosine-protein kinase ABL1 (Homo sapiens), P00519 [F317L] (P00519 whole entry F317L): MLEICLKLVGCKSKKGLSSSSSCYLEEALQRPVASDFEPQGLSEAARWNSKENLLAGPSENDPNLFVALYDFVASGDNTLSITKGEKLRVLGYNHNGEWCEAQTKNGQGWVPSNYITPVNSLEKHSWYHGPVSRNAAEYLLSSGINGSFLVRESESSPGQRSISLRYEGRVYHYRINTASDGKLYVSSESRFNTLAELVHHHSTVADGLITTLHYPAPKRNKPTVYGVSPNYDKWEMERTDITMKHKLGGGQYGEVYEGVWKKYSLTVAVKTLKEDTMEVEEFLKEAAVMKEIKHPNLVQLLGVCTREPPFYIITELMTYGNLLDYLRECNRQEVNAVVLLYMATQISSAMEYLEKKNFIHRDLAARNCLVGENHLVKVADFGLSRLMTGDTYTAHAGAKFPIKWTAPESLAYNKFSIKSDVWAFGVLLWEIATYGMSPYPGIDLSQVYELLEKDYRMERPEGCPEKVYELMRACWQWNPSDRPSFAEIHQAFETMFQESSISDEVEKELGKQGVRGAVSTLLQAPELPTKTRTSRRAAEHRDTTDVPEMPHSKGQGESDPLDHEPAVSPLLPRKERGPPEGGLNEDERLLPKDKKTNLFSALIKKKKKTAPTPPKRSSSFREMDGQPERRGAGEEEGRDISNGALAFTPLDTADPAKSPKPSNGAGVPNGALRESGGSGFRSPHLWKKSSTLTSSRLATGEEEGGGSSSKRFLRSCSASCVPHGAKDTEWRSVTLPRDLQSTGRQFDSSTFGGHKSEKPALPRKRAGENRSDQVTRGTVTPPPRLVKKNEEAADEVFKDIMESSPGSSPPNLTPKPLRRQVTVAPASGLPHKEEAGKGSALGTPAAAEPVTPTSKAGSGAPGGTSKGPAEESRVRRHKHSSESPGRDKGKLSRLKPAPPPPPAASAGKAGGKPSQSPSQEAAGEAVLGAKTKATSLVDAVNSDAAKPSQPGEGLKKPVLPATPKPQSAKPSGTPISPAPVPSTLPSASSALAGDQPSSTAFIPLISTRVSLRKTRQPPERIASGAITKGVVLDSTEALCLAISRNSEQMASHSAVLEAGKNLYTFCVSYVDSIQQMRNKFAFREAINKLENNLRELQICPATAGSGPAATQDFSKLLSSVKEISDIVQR

[18] = molecular target: Serine/threonine-protein kinase WNK2 (Homo sapiens) (UniProt Q9Y3S1)
[19] = molecular target: Ephrin type-A receptor 4 (Homo sapiens) (UniProt P54764)
Sequence of Ephrin type-A receptor 4 (Homo sapiens) (P54764 whole entry): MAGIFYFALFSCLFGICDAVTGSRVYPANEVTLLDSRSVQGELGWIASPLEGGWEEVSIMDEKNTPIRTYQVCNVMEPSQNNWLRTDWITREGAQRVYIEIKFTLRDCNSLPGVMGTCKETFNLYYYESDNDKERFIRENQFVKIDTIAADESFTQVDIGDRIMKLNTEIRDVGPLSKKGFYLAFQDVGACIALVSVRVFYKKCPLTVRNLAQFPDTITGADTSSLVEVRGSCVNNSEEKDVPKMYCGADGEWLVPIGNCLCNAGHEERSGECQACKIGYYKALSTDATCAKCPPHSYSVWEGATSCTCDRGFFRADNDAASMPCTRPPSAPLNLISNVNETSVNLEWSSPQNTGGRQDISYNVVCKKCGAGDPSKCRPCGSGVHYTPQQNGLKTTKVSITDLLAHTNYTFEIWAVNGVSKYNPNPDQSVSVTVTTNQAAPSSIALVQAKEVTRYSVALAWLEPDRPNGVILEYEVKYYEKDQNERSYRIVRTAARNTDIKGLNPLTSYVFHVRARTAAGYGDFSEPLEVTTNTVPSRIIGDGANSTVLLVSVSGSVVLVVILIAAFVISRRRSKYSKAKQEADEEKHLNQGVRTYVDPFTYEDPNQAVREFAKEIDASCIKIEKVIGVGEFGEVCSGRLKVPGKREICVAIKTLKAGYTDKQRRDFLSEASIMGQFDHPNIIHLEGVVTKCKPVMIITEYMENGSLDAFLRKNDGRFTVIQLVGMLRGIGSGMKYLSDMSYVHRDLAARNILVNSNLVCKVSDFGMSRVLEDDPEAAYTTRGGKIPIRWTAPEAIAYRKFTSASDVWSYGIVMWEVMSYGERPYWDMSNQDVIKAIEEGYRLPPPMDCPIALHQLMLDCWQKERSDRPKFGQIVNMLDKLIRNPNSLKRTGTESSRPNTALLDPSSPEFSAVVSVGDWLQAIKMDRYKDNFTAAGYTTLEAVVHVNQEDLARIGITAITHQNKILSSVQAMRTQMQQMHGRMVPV

[20] = molecular target: STE20-like serine/threonine-protein kinase (Homo sapiens) (UniProt Q9H2G2)
[21] = molecular target: Serine/threonine-protein kinase pim-1 (Homo sapiens) (UniProt P11309)
[22] = molecular target: Macrophage-stimulating protein receptor (Homo sapiens) (UniProt Q04912)
[23] = molecular target: Serine/threonine-protein kinase 10 (Homo sapiens) (UniProt O94804)
[24] = molecular target: Angiopoietin-1 receptor (Homo sapiens) (UniProt Q02763)
[25] = molecular target: Ribosomal protein S6 kinase alpha-1 (Homo sapiens) (UniProt Q15418)
[26] = molecular target: Serine/threonine-protein kinase RIO1 (Homo sapiens) (UniProt Q9BRS2)
[27] = molecular target: STE20/SPS1-related proline-alanine-rich protein kinase (Homo sapiens) (UniProt Q9UEW8)
[28] = molecular target: Serine/threonine-protein kinase Nek6 (Homo sapiens) (UniProt Q9HC98)
[29] = molecular target: Bone morphogenetic protein receptor type-1B (Homo sapiens) (UniProt O00238)
[30] = molecular target: Mitogen-activated protein kinase kinase kinase kinase 4 (Homo sapiens) (UniProt O95819)
[31] = molecular target: Receptor tyrosine-protein kinase erbB-2 (Homo sapiens) (UniProt P04626)
[32] = molecular target: Myosin-IIIa (Homo sapiens) (UniProt Q8NEV4)
[33] = molecular target: Serine/threonine-protein kinase B-raf (Homo sapiens) (UniProt P15056)
Sequence of Serine/threonine-protein kinase B-raf (Homo sapiens) (P15056 whole entry): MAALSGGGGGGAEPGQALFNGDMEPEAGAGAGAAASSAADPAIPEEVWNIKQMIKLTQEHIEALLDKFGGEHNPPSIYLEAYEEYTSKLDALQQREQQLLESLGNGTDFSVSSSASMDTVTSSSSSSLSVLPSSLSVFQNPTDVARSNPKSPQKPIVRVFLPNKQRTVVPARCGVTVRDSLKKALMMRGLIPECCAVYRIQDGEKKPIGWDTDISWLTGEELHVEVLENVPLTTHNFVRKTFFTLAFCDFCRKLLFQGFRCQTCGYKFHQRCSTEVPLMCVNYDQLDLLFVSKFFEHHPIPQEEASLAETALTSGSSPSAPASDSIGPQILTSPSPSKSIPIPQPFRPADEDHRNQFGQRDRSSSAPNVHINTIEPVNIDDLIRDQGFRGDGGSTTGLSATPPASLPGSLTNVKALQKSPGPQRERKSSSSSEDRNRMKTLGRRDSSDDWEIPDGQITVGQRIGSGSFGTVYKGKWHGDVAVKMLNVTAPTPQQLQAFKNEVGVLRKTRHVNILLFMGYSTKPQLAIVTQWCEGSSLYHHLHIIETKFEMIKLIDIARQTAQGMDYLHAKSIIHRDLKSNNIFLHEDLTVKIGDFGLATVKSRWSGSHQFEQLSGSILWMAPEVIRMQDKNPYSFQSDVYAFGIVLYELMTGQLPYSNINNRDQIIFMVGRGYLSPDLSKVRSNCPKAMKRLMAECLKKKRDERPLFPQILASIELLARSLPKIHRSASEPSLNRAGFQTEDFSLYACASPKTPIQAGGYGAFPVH

[34] = molecular target: Phosphatidylinositol 3-kinase catalytic subunit type 3 (Homo sapiens) (UniProt Q8NEB9)
Sequence of Phosphatidylinositol 3-kinase catalytic subunit type 3 (Homo sapiens) (Q8NEB9 whole entry): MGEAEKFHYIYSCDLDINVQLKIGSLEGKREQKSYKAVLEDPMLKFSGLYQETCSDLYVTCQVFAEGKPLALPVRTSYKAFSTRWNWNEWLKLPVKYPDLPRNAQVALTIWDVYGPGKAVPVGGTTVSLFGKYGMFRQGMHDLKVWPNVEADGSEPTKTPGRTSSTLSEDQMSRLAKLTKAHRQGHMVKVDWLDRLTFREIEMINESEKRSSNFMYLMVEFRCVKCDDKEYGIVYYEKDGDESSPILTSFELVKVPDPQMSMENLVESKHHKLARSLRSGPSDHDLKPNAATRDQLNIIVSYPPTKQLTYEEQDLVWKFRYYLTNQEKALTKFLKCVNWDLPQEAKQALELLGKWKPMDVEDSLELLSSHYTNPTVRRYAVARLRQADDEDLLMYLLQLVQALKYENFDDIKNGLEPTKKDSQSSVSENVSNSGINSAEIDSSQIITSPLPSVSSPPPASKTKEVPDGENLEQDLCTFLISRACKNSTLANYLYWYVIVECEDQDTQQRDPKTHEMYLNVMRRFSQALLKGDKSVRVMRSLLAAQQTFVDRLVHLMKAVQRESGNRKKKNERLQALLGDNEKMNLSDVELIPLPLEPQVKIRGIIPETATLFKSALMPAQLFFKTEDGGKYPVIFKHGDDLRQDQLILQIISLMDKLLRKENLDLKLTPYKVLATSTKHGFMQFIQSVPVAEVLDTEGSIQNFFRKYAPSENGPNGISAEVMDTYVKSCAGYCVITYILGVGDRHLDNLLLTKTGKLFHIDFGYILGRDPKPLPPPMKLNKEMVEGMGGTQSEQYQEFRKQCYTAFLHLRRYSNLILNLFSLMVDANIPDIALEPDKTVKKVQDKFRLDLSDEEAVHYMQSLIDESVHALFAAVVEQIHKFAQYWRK

[35] = molecular target: Hepatocyte growth factor receptor (Homo sapiens) (UniProt P08581)
[36] = system: Phosphatidylinositol 4,5-bisphosphate 3-kinase catalytic subunit alpha isoform (Homo sapiens), P42336 [H1047L]
[37] = molecular target: Serine/threonine-protein kinase 38 (Homo sapiens) (UniProt Q15208)
[38] = molecular target: Casein kinase I isoform epsilon (Homo sapiens) (UniProt P49674)
[39] = molecular target: Discoidin domain-containing receptor 2 (Homo sapiens) (UniProt Q16832)
[40] = molecular target: LIM domain kinase 1 (Homo sapiens) (UniProt P53667)
[41] = molecular target: Phosphatidylinositol 4,5-bisphosphate 3-kinase catalytic subunit gamma isoform (Homo sapiens) (UniProt P48736)
Sequence of Phosphatidylinositol 4,5-bisphosphate 3-kinase catalytic subunit gamma isoform (Homo sapiens) (P48736 whole entry, looked up, canonical isoform): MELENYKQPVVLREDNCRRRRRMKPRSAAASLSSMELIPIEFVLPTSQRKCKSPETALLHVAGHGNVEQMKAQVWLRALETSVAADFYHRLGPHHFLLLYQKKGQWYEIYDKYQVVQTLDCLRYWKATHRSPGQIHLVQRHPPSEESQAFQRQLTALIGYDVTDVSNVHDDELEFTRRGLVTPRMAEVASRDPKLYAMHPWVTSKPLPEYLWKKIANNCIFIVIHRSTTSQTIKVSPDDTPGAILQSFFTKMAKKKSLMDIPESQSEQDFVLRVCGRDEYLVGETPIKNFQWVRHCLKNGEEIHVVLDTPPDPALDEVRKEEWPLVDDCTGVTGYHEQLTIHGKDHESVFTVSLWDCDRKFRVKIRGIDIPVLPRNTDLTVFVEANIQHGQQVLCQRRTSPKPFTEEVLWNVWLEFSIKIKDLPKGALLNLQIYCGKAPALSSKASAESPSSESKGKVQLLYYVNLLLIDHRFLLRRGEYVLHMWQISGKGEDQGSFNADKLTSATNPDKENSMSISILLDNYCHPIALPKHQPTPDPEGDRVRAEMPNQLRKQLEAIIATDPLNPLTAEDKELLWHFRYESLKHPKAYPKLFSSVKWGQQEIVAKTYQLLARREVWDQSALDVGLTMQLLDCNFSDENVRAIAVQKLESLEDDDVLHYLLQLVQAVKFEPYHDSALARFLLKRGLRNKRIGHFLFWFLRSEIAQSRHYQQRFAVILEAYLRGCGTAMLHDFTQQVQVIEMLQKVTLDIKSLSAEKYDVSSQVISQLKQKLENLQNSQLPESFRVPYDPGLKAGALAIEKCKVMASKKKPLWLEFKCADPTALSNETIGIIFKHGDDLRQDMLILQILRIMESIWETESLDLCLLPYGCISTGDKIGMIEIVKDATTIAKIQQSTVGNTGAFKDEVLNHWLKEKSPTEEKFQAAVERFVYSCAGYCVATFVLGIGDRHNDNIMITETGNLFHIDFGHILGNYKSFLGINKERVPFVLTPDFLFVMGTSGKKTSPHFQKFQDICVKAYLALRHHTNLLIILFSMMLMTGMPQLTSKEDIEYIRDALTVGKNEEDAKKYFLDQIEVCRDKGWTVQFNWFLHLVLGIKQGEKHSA

[42] = molecular target: Serine/threonine-protein kinase PAK 5 (Homo sapiens) (UniProt Q9P286)
[43] = molecular target: Homeodomain-interacting protein kinase 2 (Homo sapiens) (UniProt Q9H2X6)
[44] = system: Receptor-type tyrosine-protein kinase FLT3 (Homo sapiens), P36888 [D835H]
[45] = molecular target: Serine/threonine-protein kinase PAK 1 (Homo sapiens) (UniProt Q13153)

For `CSc1cccnc1N1CCN(Cc2nc3ccccc3[nH]2)CC1` [A-769], the residual activity [1] was 81%, the residual activity [2] was 87% and the residual activity [3] was 84%. For the same compound, the residual activity [4] was 99%, the residual activity [5] was 100% and the residual activity [6] was 95%. It also gave a residual activity [7] of 100%, a residual activity [8] of 74% and a residual activity [9] of 99%. It also gave a residual activity [10] of 92%, a residual activity [11] of 95% and a residual activity [12] of 89%. For the same compound, the residual activity [13] was 100%, the residual activity [14] was 99% and the residual activity [15] was 100%. For the same compound, the residual activity [16] was 100%, the residual activity [17] was 100% and the residual activity [18] was 100%. For the same compound, the residual activity [19] was 100%, the residual activity [20] was 100% and the residual activity [21] was 100%. For the same compound, the residual activity [22] was 100%, the residual activity [23] was 87% and the residual activity [24] was 100%. It also gave a residual activity [25] of 100%, a residual activity [26] of 100% and a residual activity [27] of 100%. The residual activity [28] was 98%, the residual activity [29] was 80% and the residual activity [30] was 95%. The residual activity [31] was 88%, the residual activity [32] was 100% and the residual activity [33] was 89%. The residual activity [34] was 94%, the residual activity [35] was 100% and the residual activity [36] was 87%. For the same compound, the residual activity [37] was 88%, the residual activity [38] was 91% and the residual activity [39] was 89%. For the same compound, the residual activity [40] was 100%, the residual activity [41] was 64% and the residual activity [42] was 97%. It also gave a residual activity [43] of 62%, a residual activity [44] of 65% and a residual activity [45] of 100%.
Compound `c1ccc(N2CCN(Cc3nc4ccccc4[nH]3)CC2)nc1` [ABT-724] has a residual activity [1] of 100%, a residual activity [2] of 100% and a residual activity [3] of 99%. It also gave a residual activity [4] of 98%, a residual activity [5] of 100% and a residual activity [6] of 100%. The residual activity [7] was 100%, the residual activity [8] was 100% and the residual activity [9] was 100%. For the same compound, the residual activity [10] was 100%, the residual activity [11] was 100% and the residual activity [12] was 100%. It also gave a residual activity [13] of 100%, a residual activity [14] of 100% and a residual activity [15] of 88%. The residual activity [16] was 100%, the residual activity [17] was 100% and the residual activity [18] was 100%. For the same compound, the residual activity [19] was 100%, the residual activity [20] was 93% and the residual activity [21] was 90%. It also gave a residual activity [22] of 100%, a residual activity [23] of 100% and a residual activity [24] of 94%. For the same compound, the residual activity [25] was 100%, the residual activity [26] was 86% and the residual activity [27] was 100%. The residual activity [28] was 100%, the residual activity [29] was 100% and the residual activity [30] was 100%. For the same compound, the residual activity [31] was 78%, the residual activity [32] was 100% and the residual activity [33] was 100%. The residual activity [34] was 100%, the residual activity [35] was 100% and the residual activity [36] was 100%. It also gave a residual activity [37] of 89%, a residual activity [38] of 100% and a residual activity [39] of 100%. It also gave a residual activity [40] of 100%, a residual activity [41] of 100% and a residual activity [42] of 100%. For the same compound, the residual activity [43] was 26%, the residual activity [44] was 100% and the residual activity [45] was 94%.
